Assay results reported in patent US11589584B2, “Synergistic combination of 1,3-bis(hydroxymethyl)-5,5-dimethylimidazolidine-2,4-dione with glyoxal” (MC (US) 3 LLC, priority 2018, dated 2023).

System: Pseudomonas aeruginosa (ATCC 8739) and Escherichia coli (ATCC 10145) mixed microorganism culture
Experiment: Synergy in the planktonic phase: 48 h biocide challenge, regrowth read by turbidity in recovery media
Type: cell-based
Conditions: P. aeruginosa/E. coli mixed inoculum, phosphate buffer pH 7.3, 30° C., 48 hour challenge
Description: […] cultures were separately prepared from glycerol stocks. First they were streak plated and validated with a microscope. Single colonies were picked and used to inoculate 200 mL shake flasks that were grown statically overnight at 30° C. (30 grams/L Tryptic Soy Broth) to produce the initial inoculum of mixed microorganism culture. A deep-well 96 well challenge plate (2 mL maximum well volume) was prepared using 900 μL/well phosphate buffer at pH 7.3, (0.0027M potassium chloride, 0.137 M sodium chloride). Inoculation took place at the start of the experiments (with a 100 μL combined inoculum, adding to the 900 μL buffer to total 1 mL/well). […]
The inoculated assay block was challenged at 30° C. for 48 hours. […] This was done in triplicate for each point (the triplicate is already present in the biocide block viz. each point is truly determined in triplicate). […]
The recovery plates were subsequently read (checked for microbial growth) at 72 hours after addition of the culture, to recovery media. Ranking of biocidal efficacy was done by recording the development of turbidity within each well (determined by visual inspection). […] Ranking was done per average value of three data points determined per experiment. (Recorded in log regrowth).
Synergy Ratio Determined Using the Following Formulae. […]

Structure (SMILES) | DMDMH standalone 48 h pass (biocide used alone (QA)) [ppm] | Glyoxal standalone 48 h pass (used alone (QB)) [ppm]
CC1(C)C(=O)N(CO)C(=O)N1CO [DMDMH, 1,3-Bis(hydroxymethyl)-5,5-dimethylimidazolidine-2,4-dione] | 420 | –
O=CC=O [Glyoxal, oxaldehyde] | – | 1800
